Where two headings read alike, the source gives them in different places.
Assays:
mice = experiment: Hole board test in mice; assay type: in vivo, Swiss Webster mice; conditions: 30 min after oral administration
Text: The hole board test allows to study the behavior of rodents when confronted with a new environment (Boissier J R 1964, Therapie 19:571-583). The test enables to evaluate the initial exploratory activity of the animal and its possible variations induced by drug administration.
The hole board test uses a 40 cm square plane with 16 flush-mounted cylindrical holes (diameter 3 cm) distributed 4 by 4 in an equidistant, grid-like manner. Mice (male Swiss Webster mice weighing 25-30 g, supplier Morini) are placed one by one in the center of the board and allowed to move freely, each for a period of 5 min. Two photoelectric beams, crossing the plane from mid-point to mid-point of opposite sides, and thus dividing the plane into four equal quadrants, automatically record the movements of the animals on the plane surface. Miniature photoelectric cells in each of the 16 holes record the exploration of the holes (head plunging activity) by the mice.

rats [1] = experiment: Irwin test in rats; assay type: in vivo, Sprague Dawley rats
Method: To verify if the administration of the compound may induce centrally mediated side effects, adult male Sprague Dawley rats (150-200 g, supplier Harlan) were treated with dimiracetam by subcutaneous and oral routes and monitored according to the “Irwin test” protocol (Irwin 1968, Psychopharmacologia 13:222-257), a systematic and quantitative procedure for assessing the behavioral and physiological modifications induced in animals by the drug treatment.
Rats were constantly monitored for 30 min after administration. Monitoring was iterated every morning at 9 a.m. for 4 days after administration.

[2] = system: oxaliplatin-induced neuropathy; experiment: Oxaliplatin-induced neuropathy in rats, paw pressure test; assay type: in vivo, Sprague-Dawley rats; conditions: 300 mg/kg p.o. once a day
Method: Paw pressure test was performed 4 days after the last injection (Marchand F. et al. 2003, Brain Res. 980:117-120). • Taxol: taxol neuropathy was induced by intraperitoneal administration of 0.5 mg/kg once a day, on days 1, 3, 5 and 8. […] The pharmacological test was performed 14-18 days after the last taxol injection (Polomano R. C. et al. 2001, Pain 94:293-304). • Oxaliplatin: 2.4 mg/kg were injected by intraperitoneal route for 5 consecutive days followed by 2 days suspension (one cycle). A total of 3 cycles was performed, reaching a cumulative dose of 36 mg/kg (Cavaletti G. 2001, Eur. J. Cancer 37:2457-2463). The test was performed 48 h after the last oxaliplatin injection. 1.2 Antiviral-Induced Neuropathy […] The nociceptive threshold was determined with an analgesimeter (Ugo Basile, Italy), exerting a force that increases at constant rate (32 g/s) according to the method described by Leighton G. E. 1988, Br. J. Pharmacol. 93:553-560. The stimulus causing paw withdrawal was evaluated before and at different times after treatment. Results represent the mean of mechanical thresholds expressed as grams. To avoid any possible damage to the animal paw the maximum applied force was fixed at 240 g. The effect of […] evaluated in the oxaliplatin-induced neuropathy model after repeated administration with the paw pressure test.

Cynomolgus monkeys = conditions: cynomolgus monkey, in vivo, po, 2000 mg/kg/day
rats motor coordination = experiment: Motor coordination in rats (rotarod); assay type: in vivo, Sprague Dawley rats
Method: The rotarod test allows the evaluation of the effects of a compound on motor coordination. Adult male Sprague Dawley rats (200-220 g, supplier Harlan, Milan) were placed on a plastic rod 6 cm in diameter and 35 cm in length, rotating at constant speed (16 rpm) at a height of 25 cm. The rod is divided in 4 equal sections, thus up to 4 animals may be tested simultaneously. The animals were required to walk against the motion of the rotating drum over 30 seconds. The time taken to fall off the rotarod was recorded as number of falls in 30 seconds, following the method of Vaught et al. 1985, Neuropharmacology 24:211-216. In each experiment motor coordination is measured before (pre-test) and after administration of the tested compound. Rats scoring less than 3 and more than 6 falls in the pretest are rejected.

Sprague Dawley rats [3] = conditions: rat, in vivo, 3000 mg/kg
rats [4] = experiment: Rotarod/ataxia test in rats; conditions: p.o., rotating rod 10 rpm
Method: (§1) Neurological deficits were evaluated by the inability of the rats to remain on the rotating rod (10 rpm) for the test period.

ddC-induced neuropathy [5] = experiment: ddC-induced (antiviral-induced) neuropathy, von Frey test; assay type: in vivo, Sprague Dawley rats; conditions: 100 mg/kg
Method: (§2) Adult male Sprague Dawley rats (150-200 g, supplier Harlan) were treated by intravenous route with a single administration of 25 mg/kg of nucleoside reverse transcriptase inhibitors ddC (2′,3′-dideoxycytidine) or d4T (2′,3′-didehydro-3′-deoxythymidine). Administration of these anti-HIV drugs induced a marked allodynic response to a mechanical stimulus (Joseph E. K. 2004, Pain 107:147-158). The maximum reduction of the paw pressure threshold is developed between day 5 and day 10 after injection. The test was performed on day 10.
Rats (male adult Sprague Dawley rats, 150-200 g, supplier Harlan) were placed in a chamber with a mesh metal floor covered by a plastic dome that enabled the animals to walk freely, but not to jump. The mechanical stimulus was delivered in the mid-plantar skin of left hind paw using an electronic von Frey apparatus. The cut-off was fixed at 50 g, while the increasing force rate (ramp duration) was settled at 20 sec.

Sprague Dawley rats [6] = conditions: rat, in vivo, po, 2500 mg/kg/day
[7] = oral doses greater than 10 mg/kg (J. Med. Chem., 1993, 36:4214-4220); cited from earlier work
[8] = system: MIA-induced osteoarthritic pain; experiment: MIA-induced osteoarthritic pain in rats, paw pressure test; assay type: in vivo, Sprague Dawley rats
Method: Osteoarthritis was induced by a single administration of 2 mg (in a volume of 25 μl) of sodium 2-iodoacetate into the left knee joint of anaesthetized rats (male adult Sprague Dawley rats, 150-200 g, supplier Harlan) (Fernihough J. 2004, Pain 112:83-93). This treatment induces the progressive degeneration of the joint and the development of hyperalgesia, mimicking at the histological and behavioral levels what observed in humans. Pharmacological test was performed 7 days after treatment.
(§3) Mechanical hyperalgesia in rats (male adult Sprague Dawley rats, 150-200 g, supplier Harlan) was determined using the paw pressure test. The nociceptive threshold was determined with an analgesimeter (Ugo Basile, Italy), exerting a force that increases at constant rate (32 g/s) according to the method described by Leighton G. E. 1988, Br. J. Pharmacol. 93:553-560. The stimulus causing paw withdrawal was evaluated before and at different times after treatment. Results represent the mean of mechanical thresholds expressed as grams. To avoid any possible damage to the animal paw the maximum applied force was fixed at 240 g.

ddC-induced neuropathy [9] = experiment: ddC-induced neuropathy, paw pressure test; assay type: in vivo, Sprague Dawley rats; conditions: 300 mg/kg orally
Method: as §2
as §3, with “To avoid any possible damage to the animal paw the maximum applied force was fixed at 240 g.” left out
Dimiracetam is a racemic compound; the two corresponding enantiomers were synthesized and separately tested in the ddC-induced neuropathy model. The two compounds were administered orally at doses of 150 and 300 mg/kg and their antihyperalgesic activity was evaluated with the paw pressure test.

[10] = Rotarod/ataxia test in rats; conditions: rat, in vivo, po
Method: as §1

[11] = 150 mg/kg, 15-30 min after administration

In the case of O=C1CN2C(=O)CCC2N1 (racemic) [dimiracetam, 2,5-dioxohexahydro-1H-pyrrolo[1,2-a]imidazole], the “curiosity (number of head plungings)” value (mice; 3000 mg/kg p.o.) is reported as “does not significantly reduce”, the “spontaneous activity (number of movements of each animal on the plane)” value (mice; 3000 mg/kg p.o.) is reported as “does not significantly reduce” and the “effects on behavioral parameters (Irwin test)” value (rats [1]; 1000 mg/kg by subcutaneous route) is reported as “did not show any effects”. For the same compound, the “effects on behavioral parameters (Irwin test)” value (rats [1]; 3000 mg/kg p.o.) was “did not show any effects”, the “time after administration at which effect was statistically significant” value [2] was “between 30 min and 4 h” and the “mechanical hyperalgesia (paw pressure test)” value ([2]; starting three days before oxaliplatin treatment and during it) was “significantly reduced mechanical hyperalgesia”. The “tolerability, repeated dose” value (Cynomolgus monkeys) was “well tolerated”, the “motor coordination (number of falls in 30 sec, rotarod)” value (rats motor coordination; 3000 mg/kg p.o., acute) was “does not alter rats motor coordination” and the “tolerability / signs of toxicity, single dose” value (Sprague Dawley rats [3]; iv) was “substantially well tolerated”. The “tolerability / signs of toxicity, single dose” value (Sprague Dawley rats [3]; po) was “substantially well tolerated”, the “TD25 (dose causing 25% of fallen rats)” value (rats [4]) was 6000 mg/kg and the “ddC-induced allodynia (von Frey mechanical threshold)” value (ddC-induced neuropathy [5]; 15-30 min after administration) was “fully reverted ddC-induced allodynia”. For the same compound, the “ddC-induced allodynia (von Frey mechanical threshold)” value (ddC-induced neuropathy [5]; 45 min after treatment) was “still statistically significant”, the “mortality, symptomatology, normal behavior, repeated dose” value (Sprague Dawley rats [6]) was “did not produce any changes” and the “tolerability, repeated dose” value (Sprague Dawley rats [6]) was “well tolerated”. For the same compound, the “nootropic activity, dose-response” value [7] was “tends to lower”, the “reversal of MIA-induced hyperalgesia (paw pressure test)” value (from here on “reversal of MIA-induced hyperalgesia”) [8, 11] was “statistically significant effect” and the “reversal of MIA-induced hyperalgesia” value ([8]; 300 mg/kg, 60 min after administration) was “still statistically significant”. The “reversal of MIA-induced hyperalgesia” value ([8]; 300 mg/kg, between 15 and 45 min after administration) was “fully reverted MIA-induced hyperalgesia”.

For O=C1CN2C(=O)CC[C@H]2N1 (single isomer, unassigned) [(S) enantiomer], the “antihyperalgesic activity (paw pressure mechanical threshold)” value (ddC-induced neuropathy [9]; 15 min after administration) was “significant effect”.

In the case of O=C1CN2C(=O)CC[C@@H]2N1 [(R)-dimiracetam], the “antihyperalgesic activity (paw pressure mechanical threshold)” value (ddC-induced neuropathy [9]; 15-45 min after administration) is reported as “significant reduction of the pain mechanical threshold”, the “reversal of MIA-induced hyperalgesia” value [8, 11] is reported as “statistically significant effect” and the “reversal of MIA-induced hyperalgesia” value ([8]; 45 min after treatment, dose not restated) is reported as “still statistically significant”.

With NCC1(CC(=O)O)CCCCC1 [Gabapentin, gabapentin, reference compound] the “curiosity (number of head plungings)” value (mice; 1000 mg/kg) was “statistically significant reduction”, the “spontaneous activity (number of movements of each animal on the plane)” value (mice; 1000 mg/kg) was “statistically significant reduction” and the “TD16 (dose causing 16% of fallen rats)” value (rats [4]) was 1000 mg/kg.

With N#Cc1cccc(N2C(=O)CN3C(=O)CCC32)c1 (stereo not shown) [I-(3-cyanophenyl)-tetrahydropyrrolo[1,2-a]imidazole-2,5-dione] the “dose from which the number of falls is increased (rotarod)” value (rats motor coordination; rat, in vivo) was 300 mg/kg and the “motor coordination (number of falls in 30 sec, rotarod)” value (rats motor coordination; starting from the dose of 300 mg/kg) was “significantly altered animals motor coordination”.

CC[C@@H](C(N)=O)N1CCCC1=O [levetiracetam] gave a TD50 [10] of 2000 mg/kg.

With CC(C)C[C@H](CN)CC(=O)O [pregabalin] the TD50 [10] was 536 mg/kg.

COc1cccc(C2(O)CCCCC2CN(C)C)c1 (stereo not shown) [tramadol] showed a TD50 [10] of 253 mg/kg.

Source: US8222241B2, “Use of dimiracetam in the treatment of chronic pain” (priority 2007, dated 2012)
